SMILES strings stand for the structures.

Common to all, as to assay type: cell-based, human
Assay [1] concerns PA-1 ovarian cancer cells. Briefly: MTT cytotoxicity assay, 72 hrs. Particulars: PA-1, MTT. The procedure:
(§1) Human DLD-1 colon cancer cells and human PA-1 ovarian cancer cells were obtained from the American Type Culture Collection (Manassas, Va., USA). Cells were maintained in complete media (Advanced DMEM (Invitrogen) and supplemented with 2% foetal bovine serum (Sigma) and 2 mM Glutamax™ (Invitrogen)) at 37° C. in a humidified, 5% CO2 atmosphere. Spheroids were formed by plating 1.5×10^5 cells/ml onto agarose coated 96 well imaging plates (BD Biosciences) and the cells allowed to aggregate for 72 hrs at 37° C. in a humidified, 5% CO2 atmosphere resulting in the formation of single spheroid per well.
(§2) Active compounds and/or nanoparticles were diluted as required in cell media immediately prior to the assay. Cytotoxicity was determined using the MTT assay as follows. 1×10^5 cells were seeded onto each well of flat bottomed 96-well plates and allowed to attach overnight. Solutions of compounds+/−nanoparticles were added to triplicate wells at concentrations spanning a 4-log range and incubated for 72 hrs. MTT (3-(4, 5-dimethylthiazolyl-2)-2,5-diphenyltetrazolium bromide) (1.0 mM) was added to each well and were incubated for a further 4 hrs. The culture medium was removed from each well, DMSO (150 μL) was added, the plate shaken for 5 seconds and the absorbance measured immediately at 600 nm in a Victor^3V microplate reader (Perkin Elmer). IC50 values were determined as the drug concentration that reduced the absorbance to 50% of that in untreated control wells. At least three independent experiments were performed for each compound with triplicate readings in each experiment.
A general note: Tetrazolium assays rely on reduction of a dye to a coloured formazan, in cell work by metabolically active cells.

In assay [2] the test system is DLD-1 spheroids. Briefly: Cisplatin accumulation in spheroids by atomic absorption spectroscopy. To be noted: cisplatin 6 ppm without iron oxide particles, 48 hours incubation. The procedure:
as §1
DLD-1 spheroids prepared as per example 25 were dosed as with 100 μl of solution of complete media containing cisplatin and iron oxide nanoparticles from examples 1 and 2 to yield a final concentration of both cisplatin and iron oxide of 6 ppm. The spheroids with iron oxide particles and cisplatin were replaced in the incubator and maintained at 37° C. in a 5% CO2 atmosphere. After 48 hours incubation, the free cisplatin and nanoparticles in the media were washed with excess phosphate buffered saline.

Another assay has as its system DLD-1 colon cancer cells. The assay can be described thus: MTT cytotoxicity assay, 72 hrs. To be noted: DLD-1, MTT; for IC50: Homo sapiens. Here is the method: as §1, §2
Assay [3] deals with DLD-1 spheroids. Briefly: Confocal imaging of fluorescent active compound diffusion into spheroids. The procedure: as §1
(a) To the suspension of the 3 day old spheroids from example 25, 100 μl of a solution containing nanoparticles incomplete media was added to each spheroid, to yield a final concentration of particles of 10 ppm in 200 μl total volume. he spheroids were replaced in an incubator at 37° C., 5% CO2. […]
DLD-1 spheroids from example 25 were either dosed with NP2 (example 2), which are particles coated with a stabiliser containing a phosphate anchoring group or NP19 or NP23 (examples 19 and 23), which are particles coated with a stabiliser that has no anchoring portion as per example 27b. The spheroid was then imaged by confocal microscopy (as per example 28) to visualise doxorubicin fluorescence.

For a further assay, the system named is PA-1 spheroids. Briefly: Spheroid outgrowth assay. The procedure:
as §1
(a) To the suspension of the 3 day old spheroids from example 25, 100 μl of a solution containing nanoparticles incomplete media was added to each spheroid, to yield a final concentration of particles of 10 ppm in 200 μl total volume. he spheroids were replaced in an incubator at 37° C., 5% CO2. After 24 hours incubation, the nanoparticles in the media were removed by washing with excess phosphate buffered saline prior to further experimentation. […]
Spheroids from example 25 were treated as per example 27b and 27c. […] Widefield fluorescence images of the brightfield and Hoechst 33342 stained nuclei were taken of the cells that had grown out from the spheroid (Olympus CellR). To quantitate the outgrowth, the number of nuclei within a 60° angle from the edge of the spheroid was counted. […]

For orientation: IC50 means the concentration that gives 50% inhibition. A high value points to a need for much substance. Take `N.N.[Cl][Pt][Cl]` [Cisplatin]: half-maximal inhibition in assay [1] (IC50) was put at 600 nM. Further, in the assay on DLD-1 spheroids [2], the “concentration of cisplatin in the spheroids” value was 0.20 ppb.
Consider `O=C1c2c(O)ccc(O)c2C(=O)c2c(NCCNCCO)ccc(NCCNCCO)c21` [Mitoxantrone], for which the values for the IC50 (with DLD-1 colon cancer cells; in assay [1] (Homo sapiens)) were 40 nM and 20 nM, respectively. Besides, the “mitoxantrone diffusion into the spheroid” value in the assay with DLD-1 spheroids [3] (mitoxantrone alone) is listed as “approximately 70 μm”. The “effectiveness, co-administration versus administration of active compound delayed 24 hours” value in the assay on PA-1 spheroids (PA-1 spheroids) was “requires the co-administration of nanoparticles”. Moreover, the “effectiveness in PA-1 compared to DLD-1 spheroids” value in the assay on PA-1 spheroids (active compound co-administered with nanoparticles (examples 2, 3, 4, 5)) was “significantly more effective”.
On to `O=c1[nH]cc(F)c(=O)[nH]1` [5-Fluorouracil], for which the IC50 (with DLD-1 colon cancer cells; in assay [1] (Homo sapiens)) was 10000 nM throughout.
In the case of `COc1cccc2c1C(=O)c1c(O)c3c(c(O)c1C2=O)C[C@@](O)(C(=O)CO)C[C@@H]3O[C@H]1C[C@H](N)[C@H](O)[C@H](C)O1` [Doxorubicin], the IC50 (in the assay on DLD-1 colon cancer cells; in assay [1] (Homo sapiens)) was 1000 nM each time. Moreover, in the assay with DLD-1 spheroids [3] (doxorubicin alone), the “doxorubicin diffusion into the spheroid” value is on record as “approximately 70 μm”.
`CC(=O)O[C@H]1C(=O)[C@@]2(C)[C@H]([C@H](OC(=O)c3ccccc3)[C@]3(O)C[C@H](OC(=O)[C@H](O)[C@@H](NC(=O)c4ccccc4)c4ccccc4)C(C)=C1C3(C)C)[C@]1(OC(C)=O)CO[C@@H]1C[C@@H]2O` [Paclitaxel]: the “72 hr IC50” value (with DLD-1 colon cancer cells (result in words); in assay [1] (result in words)) was “indeterminable*” each time.
